# Assay results from patent publication US20260109725A1, “MACROLIDE SENOLYTIC COMPOUNDS” (LUNELLA BIOTECH, INC., priority 2022, published 2026).
# Assays:
# Format in all cases: cell-based
# [1] = test system: microorganism; assay: antibiotic activity screen, in vitro broth microdilution assay (overall statement); details: vs azithromycin and erythromycin / reference compounds
# Method: (§1) This is advantageous because use of the compounds of the present approach as therapeutic agents will have less of an impact on the development of antibiotic resistance. For example, embodiments of the present approach were screened for antibiotic activity, using the in vitro broth microdilution assay. […] The assay conditions, described by the Clinical and Laboratory Standards Institute were used for preparation of the inoculum, growth medium, and end point reading. Test substance was dissolved in 100% DMSO, suspended completely by vortexing, diluted by 2-fold serial titrations in the same vehicle, for a total of 11 test concentrations. A 4 μL aliquot of each dilution was added to 196 μL of broth medium seeded with the organism suspension in wells of a 96 well plate (bacterial count: 2-8×10(5) colony forming units/mL final). The final volume was 200 μL in each well and the final DMSO concentration was 2 percent. Test concentrations were 0.1 to 100 μM. Following incubation, the test plates were visually examined and wells were scored for growth or complete growth inhibition to define the minimum inhibitory concentration. Each test substance was evaluated with replicates. Vehicle controls and an active reference agent were used as blank and positive controls. Note that MRSA represents methicillin-resistant Staphylococcus aureus, and VRE represents vancomycin resistant Enterococcus.
# [2] = test system: Klebsiella pneumoniae ATCC 43816; assay: in vitro broth microdilution assay (MIC); details: ATCC43816
# Method: as §1
# [3] = test system: Enterococcus faecium ATCC 700221 VanA VRE; assay: in vitro broth microdilution assay (MIC)
# Method: as §1
# [4] = test system: Staphylococcus aureus ATCC 33591 MRSA; assay: in vitro broth microdilution assay (MIC)
# Method: as §1
# [5] = test system: Pseudomonas aeruginosa ATCC 27853; assay: in vitro broth microdilution assay (MIC); details: ATCC27853; Pseudomonas aeruginosa ATCC 27853, QC strain
# Method: as §1
# [6] = test system: Staphylococcus aureus ATCC 29213; assay: in vitro broth microdilution assay (MIC); details: ATCC29213; Staphylococcus aureus ATCC 29213, QC strain
# Method: as §1
# [7] = test system: Enterococcus faecalis ATCC 29212; assay: in vitro broth microdilution assay (MIC); details: ATCC29212; Enterococcus faecalis ATCC 29212, QC strain
# Method: as §1
# [8] = test system: Streptococcus pneumoniae ATCC 49619; assay: in vitro broth microdilution assay (MIC); details: ATCC49619; Streptococcus pneumoniae ATCC 49619, QC strain
# Method: as §1
# [9] = test system: Escherichia coli ATCC 25922; assay: in vitro broth microdilution assay (MIC); details: ATCC25922; Escherichia coli ATCC 25922, QC strain
# Method: as §1
# [10] = test system: Escherichia coli JW5503 DEL-tolC; assay: in vitro broth microdilution assay (MIC); details: JW5503DELTOLC
# Method: as §1
# [11] = test system: Haemophilus influenzae ATCC 49247; assay: in vitro broth microdilution assay (MIC); details: ATCC49247; Haemophilus influenzae ATCC 49247, QC strain
# Method: as §1
# [12] = test system: Acinetobacter baumannii ATCC 17978; assay: in vitro broth microdilution assay (MIC); details: ATCC17978
# Method: as §1
smiles,measurement,setting,value
"CC[C@H]1OC(=O)[C@H](C)[C@@H](O[C@@H]2C[C@@](C)(OC)[C@@H](O)[C@H](C)O2)[C@H](C)[C@@H](O[C@@H]2O[C@H](C)C[C@H](N(C)C)[C@H]2OC(=O)OCc2ccc(O[C@@H]3O[C@H](COC(C)=O)[C@H](OC(C)=O)[C@H](OC(C)=O)[C@H]3OC(C)=O)c([N+](=O)[O-])c2)[C@](C)(O)C[C@@H](C)CN(C)[C@H](C)[C@@H](O)[C@]1(C)O [Compound [I], [(2R,3S,4S,5R,6S)-3,4,5-triacetoxy-6-[4-[[(2S,3R,4S,6R)-4-(dimethylamino)-2-[[(2R,3S,4R,5R,8R,10R,11R,12S,13S,14R)-2-ethyl-3,4,10-trihydroxy-13-[(2S,4R,5S,6S)-5-hydroxy-4-methoxy-4,6-dimethyl-tetrahydropyran-2-yl]oxy-3,5,6,8,10,12,14-heptamethyl-15-oxo-1-oxa-6-azacyclopentadec-11-yl]oxy]-6-methyl-tetrahydropyran-3-yl]oxycarbonyloxymethyl]-2-nitro-phenoxy]tetrahydropyran-2-yl]methyl acetate]",antibiotic activity compared to macrolide antibiotics,[1],less antibiotic activity
same,MIC,[2],50 µM
same,MIC,[3],> 100 µM
same,MIC,[4],> 100 µM
same,MIC,[5],> 100 µM
same,MIC,[6],6.25 µM
same,MIC,[7],25 µM
same,MIC,[8],0.78 µM
same,MIC,[9],12.5 µM
same,MIC,[10],6.25 µM
same,MIC,[11],3.12 µM
same,MIC,[12],100 µM
